Tests used:
lipoamide = compound: NC(=O)CCCCC1CCSS1 [lipoamide]; assay: thermal stability z-score vs DMSO; higher = more thermally stabilized by treatment; settings: HeLa, lipoamide concentration 100 µM
Description: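 Cellular thermal proteome profiling in HeLa cells. Cells were treated with 100 µM lipoamide for 1 h, with or without 1 mM arsenate for a further 1 h, then heated to ten temperatures (37-66.3 °C), and soluble protein was quantified by TMT mass spectrometry relative to 0.1% DMSO controls. The thermal stability score (sum of log2 fold changes minus the abundance score) was transformed to a z-score; mean of n = 3 experiments.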

potassium arsenate = compound: O=[As]([O-])(O)O.[K+] [potassium arsenate]; assay: as above; settings: HeLa; arsenate concentration 1 mM
Description: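 Cellular thermal proteome profiling in HeLa cells treated with 1 mM arsenate for 1 h (DMSO pretreatment), heated to ten temperatures (37-66.3 °C). Soluble protein was quantified by TMT mass spectrometry relative to DMSO controls; the thermal stability score was transformed to a z-score; mean of n = 3 experiments.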

[1] = arsenate co-treatment: 1 mM arsenate 1 h
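Also: each temperature applied for 3 min, abundance score taken as mean log2 fold change at the two lowest temperatures, z-score obtained by mean subtraction and division by SD.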

Sequence of UniProt P19174 (P19174 whole entry): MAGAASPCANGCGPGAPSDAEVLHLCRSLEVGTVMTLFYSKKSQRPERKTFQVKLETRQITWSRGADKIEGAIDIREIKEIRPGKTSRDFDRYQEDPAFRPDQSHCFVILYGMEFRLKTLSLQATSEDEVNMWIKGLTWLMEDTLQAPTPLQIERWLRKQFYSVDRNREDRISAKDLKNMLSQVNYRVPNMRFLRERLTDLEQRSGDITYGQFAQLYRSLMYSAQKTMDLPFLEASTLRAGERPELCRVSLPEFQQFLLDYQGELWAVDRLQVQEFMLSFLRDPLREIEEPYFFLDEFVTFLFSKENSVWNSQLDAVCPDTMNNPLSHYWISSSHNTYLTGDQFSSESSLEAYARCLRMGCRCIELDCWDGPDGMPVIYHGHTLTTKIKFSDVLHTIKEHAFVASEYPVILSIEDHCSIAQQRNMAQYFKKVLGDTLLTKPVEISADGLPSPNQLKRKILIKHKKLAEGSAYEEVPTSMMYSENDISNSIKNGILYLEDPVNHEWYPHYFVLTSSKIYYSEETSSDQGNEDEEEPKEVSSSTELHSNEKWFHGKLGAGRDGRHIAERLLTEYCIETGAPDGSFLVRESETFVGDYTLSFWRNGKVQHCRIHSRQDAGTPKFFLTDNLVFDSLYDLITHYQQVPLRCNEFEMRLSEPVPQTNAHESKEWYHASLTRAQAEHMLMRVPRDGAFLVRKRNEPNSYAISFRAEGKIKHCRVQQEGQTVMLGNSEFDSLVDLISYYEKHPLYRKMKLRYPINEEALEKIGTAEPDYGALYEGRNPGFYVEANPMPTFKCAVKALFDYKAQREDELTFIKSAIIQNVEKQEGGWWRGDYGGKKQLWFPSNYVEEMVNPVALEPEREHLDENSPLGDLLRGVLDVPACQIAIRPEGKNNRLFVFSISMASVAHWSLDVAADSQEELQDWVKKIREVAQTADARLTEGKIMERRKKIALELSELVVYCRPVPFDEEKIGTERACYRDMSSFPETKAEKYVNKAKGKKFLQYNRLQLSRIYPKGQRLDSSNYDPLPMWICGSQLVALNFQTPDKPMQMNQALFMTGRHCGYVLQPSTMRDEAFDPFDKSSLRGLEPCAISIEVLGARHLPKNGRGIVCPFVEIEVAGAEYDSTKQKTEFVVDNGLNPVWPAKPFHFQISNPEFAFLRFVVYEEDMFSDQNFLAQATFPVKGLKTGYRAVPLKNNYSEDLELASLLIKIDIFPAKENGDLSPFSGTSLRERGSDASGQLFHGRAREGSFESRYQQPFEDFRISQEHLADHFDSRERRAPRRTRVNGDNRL
Sequence of UniProt Q9ULI3 (Q9ULI3 whole entry): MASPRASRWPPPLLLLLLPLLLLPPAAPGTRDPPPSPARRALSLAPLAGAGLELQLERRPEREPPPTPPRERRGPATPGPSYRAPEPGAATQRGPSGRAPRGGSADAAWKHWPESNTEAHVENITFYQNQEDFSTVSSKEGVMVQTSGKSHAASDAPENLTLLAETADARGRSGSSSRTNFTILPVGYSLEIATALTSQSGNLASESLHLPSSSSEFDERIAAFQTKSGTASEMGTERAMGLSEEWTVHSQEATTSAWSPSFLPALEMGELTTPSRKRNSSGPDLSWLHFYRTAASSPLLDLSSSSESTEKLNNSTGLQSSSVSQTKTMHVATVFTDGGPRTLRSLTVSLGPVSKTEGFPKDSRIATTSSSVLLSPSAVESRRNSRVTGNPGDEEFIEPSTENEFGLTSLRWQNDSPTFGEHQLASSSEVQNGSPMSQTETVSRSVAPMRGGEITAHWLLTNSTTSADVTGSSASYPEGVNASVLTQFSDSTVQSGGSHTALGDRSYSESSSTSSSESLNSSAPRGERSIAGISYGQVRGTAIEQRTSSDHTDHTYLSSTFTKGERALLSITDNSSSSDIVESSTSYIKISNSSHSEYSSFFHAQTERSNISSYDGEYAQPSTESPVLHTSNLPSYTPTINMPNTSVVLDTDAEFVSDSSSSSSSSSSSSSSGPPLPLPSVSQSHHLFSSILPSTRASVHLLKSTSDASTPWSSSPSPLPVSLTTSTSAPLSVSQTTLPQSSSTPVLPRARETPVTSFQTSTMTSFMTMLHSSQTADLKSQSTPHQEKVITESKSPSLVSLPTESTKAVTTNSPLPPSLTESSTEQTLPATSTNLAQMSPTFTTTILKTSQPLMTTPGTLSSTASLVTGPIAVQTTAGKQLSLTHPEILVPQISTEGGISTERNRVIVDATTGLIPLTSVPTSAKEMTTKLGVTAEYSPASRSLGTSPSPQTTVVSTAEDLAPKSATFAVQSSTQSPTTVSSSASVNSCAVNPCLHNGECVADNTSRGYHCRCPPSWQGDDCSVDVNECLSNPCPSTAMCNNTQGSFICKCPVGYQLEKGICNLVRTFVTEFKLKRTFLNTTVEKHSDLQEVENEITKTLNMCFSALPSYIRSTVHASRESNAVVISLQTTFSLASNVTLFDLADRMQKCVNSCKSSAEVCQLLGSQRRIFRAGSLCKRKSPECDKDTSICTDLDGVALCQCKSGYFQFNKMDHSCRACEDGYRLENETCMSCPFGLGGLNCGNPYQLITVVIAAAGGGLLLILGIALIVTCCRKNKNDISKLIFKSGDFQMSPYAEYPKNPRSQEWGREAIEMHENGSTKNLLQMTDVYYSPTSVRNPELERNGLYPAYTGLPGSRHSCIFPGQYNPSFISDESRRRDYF
Sequence of UniProt P30154 (P30154 whole entry): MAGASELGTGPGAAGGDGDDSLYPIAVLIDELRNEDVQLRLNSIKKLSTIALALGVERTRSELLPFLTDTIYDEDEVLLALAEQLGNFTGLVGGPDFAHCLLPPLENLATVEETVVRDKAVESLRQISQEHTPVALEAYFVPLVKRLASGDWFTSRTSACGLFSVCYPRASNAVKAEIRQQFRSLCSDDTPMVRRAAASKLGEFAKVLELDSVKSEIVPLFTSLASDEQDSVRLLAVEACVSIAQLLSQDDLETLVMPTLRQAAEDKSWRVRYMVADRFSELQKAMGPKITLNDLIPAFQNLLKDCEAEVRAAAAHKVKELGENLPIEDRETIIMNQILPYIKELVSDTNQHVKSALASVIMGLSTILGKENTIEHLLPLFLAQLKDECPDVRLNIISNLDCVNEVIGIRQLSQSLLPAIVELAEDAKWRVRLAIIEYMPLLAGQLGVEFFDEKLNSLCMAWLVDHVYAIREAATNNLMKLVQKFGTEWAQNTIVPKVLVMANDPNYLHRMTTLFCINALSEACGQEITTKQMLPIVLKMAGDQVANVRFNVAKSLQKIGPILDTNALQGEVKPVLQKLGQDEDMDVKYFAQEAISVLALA
Sequence of UniProt Q15208 (Q15208 whole entry, looked up): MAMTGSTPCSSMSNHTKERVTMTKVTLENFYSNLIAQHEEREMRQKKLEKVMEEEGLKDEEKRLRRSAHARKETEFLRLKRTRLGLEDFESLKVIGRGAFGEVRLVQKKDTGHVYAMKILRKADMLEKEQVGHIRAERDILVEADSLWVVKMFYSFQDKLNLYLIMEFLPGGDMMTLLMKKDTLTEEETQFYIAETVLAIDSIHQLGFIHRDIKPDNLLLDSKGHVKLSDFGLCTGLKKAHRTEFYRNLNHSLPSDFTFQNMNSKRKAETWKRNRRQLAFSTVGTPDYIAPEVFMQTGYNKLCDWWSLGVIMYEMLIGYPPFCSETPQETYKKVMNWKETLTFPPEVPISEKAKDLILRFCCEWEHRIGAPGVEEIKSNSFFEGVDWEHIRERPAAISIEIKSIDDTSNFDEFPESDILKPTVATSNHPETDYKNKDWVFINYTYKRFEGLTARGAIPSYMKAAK
Sequence of UniProt O15427 (O15427 whole entry): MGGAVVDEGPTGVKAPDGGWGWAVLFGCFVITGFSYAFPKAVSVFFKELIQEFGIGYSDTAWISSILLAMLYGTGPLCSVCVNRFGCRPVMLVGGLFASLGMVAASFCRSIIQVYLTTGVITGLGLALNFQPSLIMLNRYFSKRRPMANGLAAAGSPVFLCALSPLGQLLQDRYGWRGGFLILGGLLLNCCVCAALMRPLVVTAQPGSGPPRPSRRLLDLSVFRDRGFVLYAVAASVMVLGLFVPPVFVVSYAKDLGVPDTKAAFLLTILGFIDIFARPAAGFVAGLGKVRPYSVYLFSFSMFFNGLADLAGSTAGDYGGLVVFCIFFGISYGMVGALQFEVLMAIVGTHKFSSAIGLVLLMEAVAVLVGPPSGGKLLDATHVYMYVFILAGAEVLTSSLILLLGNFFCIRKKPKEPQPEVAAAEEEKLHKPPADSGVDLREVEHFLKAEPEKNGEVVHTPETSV
Sequence of UniProt O95816 (O95816 whole entry): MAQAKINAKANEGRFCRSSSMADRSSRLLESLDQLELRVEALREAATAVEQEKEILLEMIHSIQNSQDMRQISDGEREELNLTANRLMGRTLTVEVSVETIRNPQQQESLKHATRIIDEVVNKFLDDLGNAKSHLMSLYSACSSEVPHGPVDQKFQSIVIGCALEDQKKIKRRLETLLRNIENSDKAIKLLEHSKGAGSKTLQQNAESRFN
Sequence of UniProt Q9BSH5 (Q9BSH5 whole entry): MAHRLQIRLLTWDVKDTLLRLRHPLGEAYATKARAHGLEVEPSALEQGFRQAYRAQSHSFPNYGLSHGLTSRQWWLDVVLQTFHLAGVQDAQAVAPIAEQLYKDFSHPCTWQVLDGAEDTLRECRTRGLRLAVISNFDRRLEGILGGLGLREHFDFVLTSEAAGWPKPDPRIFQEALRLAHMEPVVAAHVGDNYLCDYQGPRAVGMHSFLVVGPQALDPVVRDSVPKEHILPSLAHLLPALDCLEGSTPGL
Sequence of UniProt Q9HA47 (Q9HA47 whole entry): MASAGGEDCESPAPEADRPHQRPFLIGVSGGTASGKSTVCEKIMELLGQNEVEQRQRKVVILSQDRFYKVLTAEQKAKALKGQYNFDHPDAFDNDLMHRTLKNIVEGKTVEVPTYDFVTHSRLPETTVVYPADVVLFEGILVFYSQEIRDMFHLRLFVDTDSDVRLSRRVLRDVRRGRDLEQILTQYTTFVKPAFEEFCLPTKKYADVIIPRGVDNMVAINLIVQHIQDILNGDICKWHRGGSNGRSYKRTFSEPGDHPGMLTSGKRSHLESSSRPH

Row | Target | thermal stability z-score (lipoamide; [1]) | thermal stability z-score (lipoamide; arsenate co-treatment: none) | thermal stability z-score (potassium arsenate)
1 | CNOT1 (UniProt A5YKK6) | -0.186 | 0.0688 | 1.04
2 | TMX1 (UniProt Q9H3N1) | 0.948 | 1.34 | -0.418
3 | SFXN1 (UniProt Q9H9B4) | 0.607 | 0.214 | 0.0559
4 | DHCR7 (UniProt Q9UBM7) | -0.283 | -0.384 | 0.411
5 | STK38 (UniProt Q15208) | -0.703 | -0.424 | -0.182
6 | RANBP3 (UniProt Q9H6Z4) | -0.326 | 0.21 | -0.0109
7 | TMEM9B (UniProt Q9NQ34) | 0.157 | 0.52 | 0.838
8 | TBC1D24 (UniProt Q9ULP9) | -0.346 | -0.491 | 0.0941
9 | CIZ1 (UniProt Q9ULV3) | 0.0439 | -0.505 | -0.0848
10 | MRPS14 (UniProt O60783) | -0.722 | -0.574 | -0.644
11 | SEL1L (UniProt Q9UBV2) | -2.16 | -1.76 | 0.614
12 | FER (UniProt P16591) | 0.209 | 0.182 | 0.326
13 | ZDHHC20 (UniProt Q5W0Z9) | 0.527 | 0.247 | 0.242
14 | PPP2R1B (UniProt P30154) | 0.0372 | -0.0931 | 0.107
15 | ZFYVE19 (UniProt Q96K21) | -0.473 | -0.599 | -3.34
16 | CD59 (UniProt P13987) | 0.714 | 0.698 | 3.07
17 | LETM1 (UniProt O95202) | 0.0577 | 0.374 | 0.0137
18 | RACK1 (UniProt P63244) | 0.56 | 0.4 | -0.92
19 | MRPS18B (UniProt Q9Y676) | 0.319 | 0.013 | 0.102
20 | ME2 (UniProt P23368) | 0.621 | -0.0427 | -1.26
21 | DRG2 (UniProt P55039) | -0.439 | -0.192 | -0.395
22 | PRKCZ (UniProt Q05513) | -0.134 | -0.119 | -0.0717
23 | INTS4 (UniProt Q96HW7) | 1.08 | 1.34 | -0.0059
24 | SLC4A2 (UniProt P04920) | 0.115 | 0.433 | 0.173
25 | AP1G1 (UniProt O43747) | -0.704 | -0.404 | 0.813
26 | MRPL55 (UniProt Q7Z7F7) | 0.0563 | 0.0521 | -0.38
27 | VGLL4 (UniProt Q14135) | -0.0828 | 0.229 | -1.46
28 | MRS2 (UniProt Q9HD23) | 0.937 | -0.861 | -1.27

Row | Target | thermal stability z-score (lipoamide; [1]) | thermal stability z-score (lipoamide; arsenate co-treatment: none) | thermal stability z-score (potassium arsenate)
29 | NEGR1 (UniProt Q7Z3B1) | 0.758 | -0.0845 | -0.617
30 | HMMR (UniProt O75330) | -0.103 | 0.233 | 0.594
31 | TRIM11 (UniProt Q96F44) | -0.68 | -1.71 | -1.05
32 | CMAS (UniProt Q8NFW8) | -0.0844 | -0.141 | -0.438
33 | GALNT7 (UniProt Q86SF2) | 0.205 | -0.0334 | 0.187
34 | MCM3 (UniProt P25205) | -0.878 | 0.412 | 2.44
35 | CAMLG (UniProt P49069) | 0.508 | 0.0877 | 0.0417
36 | SELO (UniProt Q9BVL4) | -0.214 | -0.211 | -0.536
37 | NFIA (UniProt Q12857) | -1.05 | -1.1 | -0.647
38 | PLCG1 (UniProt P19174) | 0.538 | 0.247 | 0.623
39 | STX6 (UniProt O43752) | -0.996 | -0.712 | -0.486
40 | BOD1L1 (UniProt Q8NFC6) | 0.583 | 0.352 | -0.589
41 | BAG2 (UniProt O95816) | 0.187 | 0.292 | -0.106
42 | TST (UniProt Q16762) | 0.729 | -0.00911 | 1
43 | UCK1 (UniProt Q9HA47) | -0.206 | -0.165 | 0.121
44 | AGAP3 (UniProt Q96P47) | 0.0887 | -0.377 | -0.25
45 | RAB18 (UniProt Q9NP72) | 0.167 | 0.352 | 0.672
46 | SLC16A3 (UniProt O15427) | 0.645 | 0.712 | 0.351
47 | RUVBL2 (UniProt Q9Y230) | -0.408 | -0.0917 | -0.75
48 | IGSF8 (UniProt Q969P0) | 0.26 | 0.326 | 0.893
49 | CYFIP2 (UniProt Q96F07) | 0.325 | 0.825 | 0.312
50 | FDXR (UniProt P22570) | -0.331 | -0.428 | 0.404
51 | HDHD3 (UniProt Q9BSH5) | -0.136 | -0.867 | -2.27
52 | ATRX (UniProt P46100) | -0.0326 | 0.195 | -0.0925
53 | CIC (UniProt Q96RK0) | 0.0454 | -0.131 | -0.261
54 | POLR1A (UniProt O95602) | 0.371 | -0.00373 | -2.59
55 | HEG1 (UniProt Q9ULI3) | -0.842 | 1.15 | 0.868
